Patent US12492173B2, “Herbicidal substituted N-tetrazolyl aryl carboxamides” (Bayer Aktiengesellschaft, priority 2019, dated 2025)

Assays:
Assay type in all cases: in vivo
Abutilon theophrasti [1] = assay: Pre-emergence herbicidal action, ABUTH; details: dosage 320 g/ha, scored visually after 3 weeks vs untreated controls (100% = plants have died)
In short: (§1)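 Greenhouse pre-emergence test: formulated compound (WP or EC) applied in water to the soil covering sown seeds, 600–800 l/ha, 0.2% wetting agent. Scored visually in percent at 3 weeks versus untreated plants.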

Matricaria inodora [2] = assay: Post-emergence herbicidal action, MATIN; design: key: % herbicidal action vs untreated; 100 = plants died, 0 = like control
In short: (§2)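 Percent herbicidal effect was rated visually about 3 weeks after treatment, relative to untreated plants (0% = like control, 100% = dead). Compounds, formulated as WP or EC, went on as aqueous spray (600–800 l/ha, 0.2% wetting agent) to one-leaf-stage plants 2–3 weeks post-sowing in sandy loam.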

Viola tricolor = assay: Post-emergence herbicidal action, VIOTR; design: key: % herbicidal action vs untreated; 100 = plants died, 0 = like control
In short: as §2

Matricaria inodora [3] = assay: Pre-emergence herbicidal action, MATIN; details: dosage 320 g/ha; for herbicidal activity MATIN: scored visually after 3 weeks vs untreated controls (100% = plants have died)
In short: as §1

Abutilon theophrasti [4] = assay: Post-emergence herbicidal action, ABUTH; design: key: % herbicidal action vs untreated; 100 = plants died, 0 = like control
In short: as §2

Stellaria media = assay: Pre-emergence herbicidal action, STEME; design: key to Herbicidal action against STEME: % activity: 100 = plants have died, 0 = like control plants; details: for herbicidal activity STEME: scored visually after 3 weeks vs untreated controls (100% = plants have died)
In short: as §1

[5] = comparative experiment, post-emergence, 5 g of a.i./ha

Compound: CCCn1nnnc1NC(=O)c1ccc(C(F)(F)F)c(CSCC)c1Cl [Example 3-299]
- herbicidal activity ABUTH (Abutilon theophrasti [1]): 100%
- herbicidal action MATIN (Matricaria inodora [2]; Dosage 80 g/ha): 100
- herbicidal action VIOTR (Viola tricolor; Dosage 80 g/ha): 100
- herbicidal activity MATIN (Matricaria inodora [3]): 100%
- herbicidal action ABUTH (Abutilon theophrasti [4]; Dosage 80 g/ha): 90
- herbicidal activity STEME (Stellaria media; dosage 320 g/ha): 90%

Compound: CCn1nnnc1NC(=O)c1ccc(C)c(CSC)c1Cl [Example 2-287]
- herbicidal action MATIN (Matricaria inodora [2]; Dosage 80 g/ha): 100
- herbicidal action VIOTR (Viola tricolor; Dosage 80 g/ha): 100
- herbicidal activity MATIN (Matricaria inodora [3]): 100%
- herbicidal action ABUTH (Abutilon theophrasti [4]; Dosage 80 g/ha): 80
- herbicidal activity STEME (Stellaria media; dosage 320 g/ha): 80%

Compound: CCn1nnnc1NC(=O)c1ccc(C(F)(F)F)c(CSC)c1SC [Example 2-161]
- herbicidal activity ABUTH (Abutilon theophrasti [1]): 100%
- herbicidal action MATIN (Matricaria inodora [2]; post-emergence, dosage 80 g/ha): 100%
- herbicidal action VIOTR (Viola tricolor; post-emergence, dosage 80 g/ha): 100%
- herbicidal activity MATIN (Matricaria inodora [3]): 100%
- herbicidal action ABUTH (Abutilon theophrasti [4]; post-emergence, dosage 80 g/ha): 90%
- herbicidal activity STEME (Stellaria media; dosage 320 g/ha): 100%

Compound: CSCc1c(C(F)F)ccc(C(=O)Nc2nnnn2C)c1C [Example 1-107, 4-(difluoromethyl)-2-methyl-3-[(methylsulfanyl)methyl]-N-(1-methyl-1H-tetrazol-5-yl)benzamide]
- herbicidal activity ABUTH (Abutilon theophrasti [1]): 100%
- herbicidal action MATIN (Matricaria inodora [2]; Dosage 80 g/ha): 90
- herbicidal action VIOTR (Viola tricolor; Dosage 80 g/ha): 100
- herbicidal activity MATIN (Matricaria inodora [3]): 100%
- herbicidal action ABUTH (Abutilon theophrasti [4]; Dosage 80 g/ha): 80
- herbicidal activity STEME (Stellaria media; dosage 320 g/ha): 90%

Compound: CCCn1nnnc1NC(=O)c1ccc(C(F)(F)F)c(C[S+](C)[O-])c1Cl (stereo not drawn) [Example 3-297]
- herbicidal activity ABUTH (Abutilon theophrasti [1]): 100%
- herbicidal action MATIN (Matricaria inodora [2]; post-emergence, dosage 80 g/ha): 100%
- herbicidal action VIOTR (Viola tricolor; post-emergence, dosage 80 g/ha): 100%
- herbicidal activity MATIN (Matricaria inodora [3]): 100%
- herbicidal action ABUTH (Abutilon theophrasti [4]; post-emergence, dosage 80 g/ha): 80%
- herbicidal activity STEME (Stellaria media; dosage 320 g/ha): 100%

Compound: CCn1nnnc1NC(=O)c1ccc(C(F)(F)F)c(CS(C)(=O)=O)c1OC [Example 2-136]
- herbicidal activity ABUTH (Abutilon theophrasti [1]): 100%
- herbicidal action MATIN (Matricaria inodora [2]; Dosage 80 g/ha): 100
- herbicidal action VIOTR (Viola tricolor; Dosage 80 g/ha): 100
- herbicidal activity MATIN (Matricaria inodora [3]): 100%
- herbicidal action ABUTH (Abutilon theophrasti [4]; Dosage 80 g/ha): 100
- herbicidal activity STEME (Stellaria media; dosage 320 g/ha): 100%

Compound: Cn1nnnc1NC(=O)c1ccc(C(F)(F)F)c(C[S+](C)[O-])c1F (stereo not drawn) [Example 1-243]
- herbicidal activity ABUTH (Abutilon theophrasti [1]): 100%
- herbicidal action MATIN (Matricaria inodora [2]; Dosage 80 g/ha): 100
- herbicidal action VIOTR (Viola tricolor; Dosage 80 g/ha): 100
- herbicidal activity MATIN (Matricaria inodora [3]): 100%
- herbicidal action ABUTH (Abutilon theophrasti [4]; Dosage 80 g/ha): 90
- herbicidal activity STEME (Stellaria media; dosage 320 g/ha): 90%

Compound: CCCn1nnnc1NC(=O)c1ccc(C(F)(F)F)c(CSC)c1Br [Example 3-380]
- herbicidal activity ABUTH (Abutilon theophrasti [1]): 100%
- herbicidal action MATIN (Matricaria inodora [2]; Dosage 80 g/ha): 100
- herbicidal action VIOTR (Viola tricolor; Dosage 80 g/ha): 100
- herbicidal activity MATIN (Matricaria inodora [3]): 100%
- herbicidal action ABUTH (Abutilon theophrasti [4]; Dosage 80 g/ha): 80

Compound: CCCn1nnnc1NC(=O)c1ccc(C(F)F)c(CSC)c1C [Example 3-107]
- herbicidal activity ABUTH (Abutilon theophrasti [1]): 100%
- herbicidal action MATIN (Matricaria inodora [2]; Dosage 80 g/ha): 90
- herbicidal action VIOTR (Viola tricolor; Dosage 80 g/ha): 100
- herbicidal activity MATIN (Matricaria inodora [3]): 100%
- herbicidal action ABUTH (Abutilon theophrasti [4]; Dosage 80 g/ha): 80
- herbicidal activity STEME (Stellaria media; dosage 320 g/ha): 100%

Compound: Cn1nnnc1NC(=O)c1ccc(C(F)(F)F)c(CS(C)(=O)=O)c1Cl [Example 1-298]
- herbicidal activity ABUTH (Abutilon theophrasti [1]): 100%
- Herbicidal action against MATIN (Matricaria inodora [2]; [5]): 100
- herbicidal action MATIN (Matricaria inodora [2]; post-emergence, dosage 80 g/ha): 100%
- herbicidal action VIOTR (Viola tricolor; post-emergence, dosage 80 g/ha): 100%
- herbicidal activity MATIN (Matricaria inodora [3]): 100%
- herbicidal action ABUTH (Abutilon theophrasti [4]; post-emergence, dosage 80 g/ha): 80%
- herbicidal activity STEME (Stellaria media; dosage 320 g/ha): 100%

Compound: Cc1ccc(C(=O)Nc2nnnn2C)c(Cl)c1CS(C)(=O)=O [Example 1-289]
- herbicidal activity ABUTH (Abutilon theophrasti [1]): 90%
- herbicidal action MATIN (Matricaria inodora [2]; Dosage 80 g/ha): 100
- herbicidal action VIOTR (Viola tricolor; Dosage 80 g/ha): 100
- herbicidal activity MATIN (Matricaria inodora [3]): 100%
- herbicidal activity STEME (Stellaria media; dosage 320 g/ha): 90%

Compound: Cn1nnnc1NC(=O)c1ccc(C(F)(F)F)c(CS(C)(=O)=O)c1F [Example 1-244]
- herbicidal activity ABUTH (Abutilon theophrasti [1]): 100%
- herbicidal action MATIN (Matricaria inodora [2]; Dosage 80 g/ha): 100
- herbicidal action VIOTR (Viola tricolor; Dosage 80 g/ha): 100
- herbicidal activity MATIN (Matricaria inodora [3]): 100%
- herbicidal action ABUTH (Abutilon theophrasti [4]; Dosage 80 g/ha): 90
- herbicidal activity STEME (Stellaria media; dosage 320 g/ha): 90%

Compound: CCn1nnnc1NC(=O)c1ccc(C(F)(F)F)c(C[S+](C)[O-])c1OC (stereo not drawn) [Example 2-135]
- herbicidal activity ABUTH (Abutilon theophrasti [1]): 100%
- herbicidal action MATIN (Matricaria inodora [2]; Dosage 80 g/ha): 100
- herbicidal action VIOTR (Viola tricolor; Dosage 80 g/ha): 100
- herbicidal activity MATIN (Matricaria inodora [3]): 100%
- herbicidal action ABUTH (Abutilon theophrasti [4]; Dosage 80 g/ha): 100
- herbicidal activity STEME (Stellaria media; dosage 320 g/ha): 90%

Compound: CCn1nnnc1NC(=O)c1ccc(C(F)(F)F)c(CS(C)(=O)=O)c1SC [Example 2-163]
- herbicidal activity ABUTH (Abutilon theophrasti [1]): 100%
- herbicidal action MATIN (Matricaria inodora [2]; Dosage 80 g/ha): 100
- herbicidal action VIOTR (Viola tricolor; Dosage 80 g/ha): 100
- herbicidal activity MATIN (Matricaria inodora [3]): 100%
- herbicidal action ABUTH (Abutilon theophrasti [4]; Dosage 80 g/ha): 100
- herbicidal activity STEME (Stellaria media; dosage 320 g/ha): 90%

Compound: Cn1nnnc1NC(=O)c1ccc(C(F)(F)F)c(C[S+](C)[O-])c1Br (stereo not drawn) [Example 1-381]
- herbicidal activity ABUTH (Abutilon theophrasti [1]): 100%
- herbicidal action MATIN (Matricaria inodora [2]; post-emergence, dosage 80 g/ha): 90%
- herbicidal action VIOTR (Viola tricolor; post-emergence, dosage 80 g/ha): 100%
- herbicidal activity MATIN (Matricaria inodora [3]): 100%
- herbicidal action ABUTH (Abutilon theophrasti [4]; post-emergence, dosage 80 g/ha): 100%
- Herbicidal action against STEME (Stellaria media; comparative experiment, 20 g of a.i./ha): 90
- herbicidal activity STEME (Stellaria media; dosage 320 g/ha): 90%

Compound: CCCn1nnnc1NC(=O)c1ccc(C(F)(F)F)c(CS(=O)(=O)CC)c1C [Example 3-88]
- herbicidal activity ABUTH (Abutilon theophrasti [1]): 100%
- herbicidal action MATIN (Matricaria inodora [2]; Dosage 80 g/ha): 90
- herbicidal action VIOTR (Viola tricolor; Dosage 80 g/ha): 100
- herbicidal activity MATIN (Matricaria inodora [3]): 100%
- herbicidal action ABUTH (Abutilon theophrasti [4]; Dosage 80 g/ha): 80
- herbicidal activity STEME (Stellaria media; dosage 320 g/ha): 80%

Compound: Cc1c(C(=O)Nc2nnnn2C)ccc(C(F)(F)F)c1CS(C)(=O)=O [Example 1-85]
- herbicidal activity ABUTH (Abutilon theophrasti [1]): 100%
- herbicidal action MATIN (Matricaria inodora [2]; Dosage 80 g/ha): 100
- herbicidal action VIOTR (Viola tricolor; Dosage 80 g/ha): 100
- herbicidal activity MATIN (Matricaria inodora [3]): 100%
- herbicidal action ABUTH (Abutilon theophrasti [4]; Dosage 80 g/ha): 90
- herbicidal activity STEME (Stellaria media; dosage 320 g/ha): 100%

Compound: Cc1c(C(=O)Nc2nnnn2C)ccc(C(F)F)c1CS(C)(=O)=O [Example 1-109]
- herbicidal activity ABUTH (Abutilon theophrasti [1]): 100%
- herbicidal action MATIN (Matricaria inodora [2]; Dosage 80 g/ha): 100
- herbicidal action VIOTR (Viola tricolor; Dosage 80 g/ha): 100
- herbicidal activity MATIN (Matricaria inodora [3]): 90%
- herbicidal action ABUTH (Abutilon theophrasti [4]; Dosage 80 g/ha): 90

Compound: CCn1nnnc1NC(=O)c1ccc(S(C)(=O)=O)c(CS(C)(=O)=O)c1C [Example 2-39]
- herbicidal action MATIN (Matricaria inodora [2]; Dosage 80 g/ha): 80
- herbicidal action VIOTR (Viola tricolor; Dosage 80 g/ha): 100
- herbicidal action MATIN (Matricaria inodora [3]): 100%
- herbicidal action ABUTH (Abutilon theophrasti [4]; Dosage 80 g/ha): 90
- herbicidal action STEME (Stellaria media; dosage 320 g/ha): 100%

Compound: COc1c(C(=O)Nc2nnnn2C)ccc(C(F)(F)F)c1CSC [Example 1-134]
- herbicidal activity ABUTH (Abutilon theophrasti [1]): 100%
- herbicidal action MATIN (Matricaria inodora [2]; Dosage 80 g/ha): 100
- Herbicidal action against MATIN (Matricaria inodora [2]; [5]): 90
- Herbicidal action against MATIN (Matricaria inodora [2]; post-emergence, dosage 80 g/ha): 100
- herbicidal action VIOTR (Viola tricolor; Dosage 80 g/ha): 100
- Herbicidal action against VIOTR (Viola tricolor; [5]): 100
- Herbicidal action against VIOTR (Viola tricolor; post-emergence, dosage 80 g/ha): 100
- herbicidal activity MATIN (Matricaria inodora [3]): 100%
- herbicidal action ABUTH (Abutilon theophrasti [4]; Dosage 80 g/ha): 100

Compound: CCSCc1c(C(F)(F)F)ccc(C(=O)Nc2nnnn2C)c1C [Example 1-86]
- herbicidal activity ABUTH (Abutilon theophrasti [1]): 100%
- herbicidal action MATIN (Matricaria inodora [2]; post-emergence, dosage 80 g/ha): 100%
- herbicidal action VIOTR (Viola tricolor; post-emergence, dosage 80 g/ha): 100%
- herbicidal activity MATIN (Matricaria inodora [3]): 100%
- herbicidal action ABUTH (Abutilon theophrasti [4]; post-emergence, dosage 80 g/ha): 80%

Compound: CCCn1nnnc1NC(=O)c1ccc(C(F)F)c(C[S+]([O-])CC)c1Cl (stereo not drawn) [Example 3-324]
- herbicidal activity ABUTH (Abutilon theophrasti [1]): 100%
- herbicidal action VIOTR (Viola tricolor; Dosage 80 g/ha): 100
- herbicidal activity MATIN (Matricaria inodora [3]): 100%
- herbicidal action ABUTH (Abutilon theophrasti [4]; Dosage 80 g/ha): 100
- herbicidal activity STEME (Stellaria media; dosage 320 g/ha): 100%

Compound: CCCn1nnnc1NC(=O)c1ccc(C(F)(F)F)c(CS(C)(=O)=O)c1OC [Example 3-136]
- herbicidal activity ABUTH (Abutilon theophrasti [1]): 100%
- herbicidal action VIOTR (Viola tricolor; Dosage 80 g/ha): 100
- herbicidal activity MATIN (Matricaria inodora [3]): 100%
- herbicidal action ABUTH (Abutilon theophrasti [4]; Dosage 80 g/ha): 100
- herbicidal activity STEME (Stellaria media; dosage 320 g/ha): 100%
